# Entries after “also recorded” stand apart in the source; their conditions may differ.
# Experiments:
# [1] = tested on: amiloride-insensitive salt taste receptor; assay: Rat chorda tympani (CT) taste nerve recordings; type: in vivo; settings: for effect on NaCl chorda tympani response: no Bz; for effect on RTX-enhanced NaCl chorda tympani response: 100 mM NaCl+5 μM benzamil+0.75 μM RTX, capsazepine 0-500 μM
# Source text: Chorda tympani nerve recordings. Recordings from the chorda tympani (CT) taste nerves of anesthetized rats were made. Recordings were made with various salt stimuli and with the taste receptive field under current or voltage clamp in order to observe the effect, if any, of modulating the driving force for ions through putative […] apical membrane ion channels involved in salt taste reception.
# [2] = tested on: amiloride-insensitive salt taste receptor; assay: Chorda tympani responses in wildtype C57BL/6J mice; type: in vivo, mouse
# [3] = tested on: amiloride-insensitive salt taste receptor
# [4] = tested on: polarized rat fungiform taste receptor cells; assay: [Na+]i measurement (Na-green F490) in polarized taste receptor cells, unilateral apical Na+ flux; type: cell-based
# Source text: [Na^+]i measurement in polarized taste receptor cells. A small piece of the anterior lingual epithelium containing a single fungiform papilla was mounted in a special microscopy chamber (Lyall et al., 2002, supra). Relative changes in intracellular sodium activity ([Na^+]i) were monitored in polarized taste receptor cells with the sodium sensitive fluoroprobe sodium-green. The taste receptor cells in the taste bud were visualized from the basolateral side through a 40× objective using a fluorescence microscope.
# [5] = fixed RTX concentration (0.75 μM), 100 mM NaCl+5 μM Bz
compound,measurement,setting,value
"Nc1ncnc2c1ncn2[C@@H]1O[C@H](COP(=O)(O)OP(=O)(O)OP(=O)(O)O)[C@@H](O)[C@H]1O [ATP, Adenosine 5′-triphosphate]",effect on chorda tympani response compared to 100 mM NaCl+5 μM benzamil+100 μM evodiamine,"[1]; 100 μM evodiamine+500 μM ATP, 100 mM NaCl+5 μM benzamil",further enhancement
same,effect on the temperature threshold of the Bz-insensitive NaCl chorda tympani response,[1]; ATP 500 μM alone,no effect
"COc1cc(CNC(=S)CC(COC(=O)C(C)(C)C)Cc2ccc(C)c(C)c2)ccc1O (centres unmarked) [Agonist 23, 2-(3,4-dimethylbenzyl)-3-{[(4-hydroxy-3-methoxybenzyl)amino]carbothioyl}propyl pivalate]",effect on CT response at higher concentrations,[1]; 100 mM NaCl+5 μM benzamil,decrease
same,effect on CT response at low concentration,[1]; 100 mM NaCl+5 μM benzamil,enhances
same,temperature dependence of effectiveness,[1]; 41° versus 23°,more effective at 41°
"NC(=NCc1ccccc1)NC(=O)c1nc(Cl)c(N)nc1N [Bz, benzamil]",part of the NaCl chorda tympani response that was Bz-insensitive,"[2]; wildtype mice, 23°, 100 mM NaCl+5 μM Bz",about 25%
"C=C(C)[C@]12C[C@@H](C)[C@@]34O[C@](Cc5ccccc5)(O[C@@H]1[C@@H]3C=C(COC(=O)Cc1ccc(O)c(OC)c1)C[C@]1(O)C(=O)C(C)=C[C@@H]41)O2 [RTX, resiniferatoxin]",effect on Bz-insensitive NaCl chorda tympani response,"[2]; wildtype mice, 23°, 100 mM NaCl+5 μM Bz+0.75 μM RTX",enhanced
same,response to RTX at 42°,"[2]; wildtype mice, 42°, 100 mM NaCl+5 μM Bz+0.75 μM RTX",significantly enhanced relative to 23°
same,effect on response to NaCl+Bz,"[3]; VR1 knockout mice, 0.75 μM RTX, 23° and 42°",No effects
same,CT response profile,"[1]; 10 mM KCl+0.5 μM RTX at 23°, no ethanol",only a transient phasic response
same,effect of RTX on the CT response to ethanol,"[1]; 10 mM KCl+40% ETH+0.5 μM RTX, 23° and 42°",enhanced the response
same,effect on temperature threshold of the KCl CT response,[1]; 10 mM KCl+60% ETH+0.5 μM RTX,without affecting the temperature threshold
same,effect on NaCl chorda tympani response,[1]; 100 mM NaCl+1 μM RTX,reversibly increased
same,concentration at which enhancement of the Bz-insensitive NaCl chorda tympani response begins,[1]; 100 mM NaCl+5 μM Bz,0.1 µM
same,concentration at which the Bz-insensitive NaCl chorda tympani response decreased to rinse level (eliminated),[1]; 100 mM NaCl+5 μM Bz,around 10 μM
same,concentration at which the NaCl response returned to control level,[1]; 100 mM NaCl+5 μM Bz,around 3 μM
same,concentration of maximum enhancement of the Bz-insensitive NaCl chorda tympani response,[1]; 100 mM NaCl+5 μM Bz,1 µM
same,rank order potency on the Bz-insensitive NaCl chorda tympani response,[1]; 100 mM NaCl+5 μM Bz,RTX>CAP>CPC
same,pH of greatest RTX-induced increase in the Bz-insensitive NaCl chorda tympani response,"[1]; 100 mM NaCl+5 μM Bz+0.5 μM RTX, pHo 2-10",6
same,effect on Bz-insensitive NaCl chorda tympani response,[1]; 100 mM NaCl+5 μM Bz+1 μM RTX,same magnitude of enhancement
same,effect on NaCl chorda tympani response,[1]; 100 mM NaCl+10 μM RTX,reversibly decreased
same,effect on Bz-insensitive NaCl chorda tympani response,[1]; NaCl+5 μM Bz+10 μM RTX,reduced the response (j-k) to rinse level
same,"effect on the CT responses to sucrose, quinine or H+ ions","[1]; rat, in vivo",no effect
"COc1cccc(NC(=O)C=Cc2ccc(Cl)cc2)c1 [SB-366791, N-(3-methoxyphenol)-4-chlorocinnamide]",increase in F490 on increase of apical Na+ concentration,[4]; 150 mM NaCl+,completely inhibited; also recorded: no increase
same,increase in F490 above baseline with ethanol,[4]; 150 mM NaCl++40% ETH,no further increase
same,effect on Bz-insensitive NaCl chorda tympani response at 23° and elevated temperatures,"[1]; 1 μM SB-366791, 100 mM NaCl+5 μM Bz",completely blocked
same,effect on CT response to RTX+ETH,"[1]; RTX+ETH+0.1 μM SB-366791, 23° and 42°",completely inhibited the tonic component
same,effect on transient phasic responses to ethanol,[1]; ethanol solutions containing 0.1 mM SB-366791,did not affect
COc1cc(CNC(=O)CCCC/C=C/C(C)C)ccc1O [capsaicin],chorda tympani response to KCl and NH4Cl at high capsaicin,"[1]; 100 mM KCl, 100 mM NH4Cl, 200 μM capsaicin",a residual response remained
same,concentration at which the Bz-insensitive NaCl chorda tympani response decreased to rinse level (eliminated),[1]; 100 mM NaCl+5 μM Bz,200 µM
same,concentration of maximum enhancement of the Bz-insensitive NaCl chorda tympani response,[1]; 100 mM NaCl+5 μM Bz,40 µM
same,rank order potency on the Bz-insensitive NaCl chorda tympani response,[1]; 100 mM NaCl+5 μM Bz,RTX>CAP>CPC
same,concentration of maximum enhancement of the Bz-insensitive NaCl chorda tympani response,"[1]; 100 mM NaCl+5 μM Bz, listed as CAP",around 40 μM
Oc1cc2c(cc1O)CN(C(=S)NCCc1ccc(Cl)cc1)CCC2 [capsazepine],increase in F490 relative to 150 mM NaCl+5 mM Bz+40% ETH,[4]; 150 mM NaCl+5 mM Bz+40% ETH+100 mM CZP,significantly smaller increase
same,effect on RTX-enhanced NaCl chorda tympani response,[1],monotonically reduced
same,effect on RTX-enhanced NaCl chorda tympani response,[1]; listed as CZP,dose-dependent inhibition
same,effect on RTX concentration response curve of the Bz-insensitive NaCl chorda tympani response,"[1]; CZP 10 μM, RTX 0-10 μM",shifted the RTX concentration response curve to the right
same,CZP concentration at which chorda tympani responses decreased to the level with NaCl alone,[1]; [5],100 µM
same,CZP concentration at which the chorda tympani response was below the level with NaCl alone,[1]; [5],≥ 250 µM
CCO [ethanol],increase in F490 relative to zero ethanol,[4]; 150 NaCl+5 mM Bz+10% ethanol,bigger increase
same,increase in F490 relative to 10% ethanol,[4]; 150 NaCl+5 mM Bz+40% ethanol,further increase
same,change in F490 relative to zero ethanol,"[4]; Na+-free Ringer's solution, 10% or 40% ethanol",no changes
same,CT response relative to 10 mM KCl,"[2]; WT mice, 10 mM KCl+60% ETH",greater CT response
same,effect on Bz-insensitive NaCl CT response,"[2]; WT mice, 100 mM NaCl+5 μM Bz+60% ETH",inhibited the CT response
same,CT response to R+60% ETH,"[3]; VR1 KO mice, 10 mM KCl+60% ETH",no CT response
same,effect on the NaCl CT response or the Bz-insensitive NaCl CT response,"[3]; VR1 KO mice, 60% ETH",no effect
same,effect on CT response in the presence of RTX,"[1]; 10 mM KCl+0.5 μM RTX, 40% ETH or 60% ETH, 23°",increased the CT response in a dose dependent manner
same,CT response profile,[1]; 10 mM KCl+20% ETH at 42°,phasic response followed by a sustained tonic phase
same,enhancement of the magnitude of the tonic component at 42° relative to 23°,[1]; 10 mM KCl+20% ETH+0.5 μM RTX,50%
same,CT response profile,[1]; 10 mM KCl+20% ETH+0.5 μM RTX at 23°,both a phasic component and a sustained tonic component
same,CT response profile,"[1]; 10 mM KCl+20% ETH, 23°",only a transient phasic response
same,CT response profile,"[1]; 10 mM KCl+20% ETH, 23°, listed as ETH",did not increase the CT response above baseline
same,CT response profile,[1]; 10 mM KCl+30% ETH,only a transient phasic response
same,magnitude of CT response at 42° relative to 23°,[1]; 10 mM KCl+40% ETH,enhanced
same,CT response profile,"[1]; 10 mM KCl+40% ETH, 23°, listed as ETH",transient phasic response that was followed by a sustained tonic response; also recorded: both a phasic and a tonic component
same,CT response profile,[1]; 10 mM KCl+50% ETH and 10 mM KCl+60% ETH,both phasic and tonic components
same,temperature producing a sharp increase in the KCl CT response,[1]; 10 mM KCl+60% ETH,380
same,temperature of maximum enhancement of the KCl CT response,"[1]; 10 mM KCl+60% ETH, 23° to 55.5°",41 °
same,effect on magnitude of the Bz-insensitive NaCl CT response,[1]; 100 mM NaCl+5 mM Bz+60% ethanol,decreased
same,effect on magnitude of the Bz-insensitive NaCl CT response,"[1]; 100 mM NaCl+5 mM Bz+ETH, 20% to 40% ethanol",dose-dependent increase
same,effect of 42° on CT response to ethanol relative to 23°,"[1]; 80% ethanol, H2O rinse",no effect
same,ethanol concentration that inhibited CT responses,[1]; KCl and NaCl,> 60%
same,CT response to ethanol alone,"[1]; ethanol 40%-100% in distilled H2O, 23°",only a transient phasic component
Evodiamine,effect on chorda tympani response in rinse solution,[1]; 100 μM evodiamine in 10 mM KCl,no effect
same,concentration at which enhancement of the Bz-insensitive NaCl chorda tympani response begins,[1]; 100 mM NaCl+5 μM Bz,30 µM
same,concentration of maximum enhancement of the Bz-insensitive NaCl chorda tympani response,[1]; 100 mM NaCl+5 μM Bz,300 µM
same,concentration at which the response is the same as the control response,[1]; 100 mM NaCl+5 μM benzamil,3 mM
same,effect on chorda tympani response at concentrations higher than 3 mM,[1]; 100 mM NaCl+5 μM benzamil,inhibited
